System: A549 cells
Experiment: A549 cell proliferation, MTT assay
Assay type: cell-based, human
Conditions: for % inhibition: 10^−7 M, 72 hours at 37° C., mean ± SEM, 3 to 7 experiments
Protocol: A microculture 3,(4,5-dimethylthiazoyl-2-yl) 2,5 (diphenyl-tetrazolium bromide) (MTT) assay, (Marshall, N. J., et al. (1995) A critical assessment of the use of microculture tetrazolium assays to measure cell growth and function. Growth Regul. 5: 69-84.), was used to examine the actions of LXs and other eicosanoids on cell proliferation. A549 cells and fibroblasts from exponential-phase maintenance cultures were counted and dispensed within replicate 96-well culture plates in 100 μl volumes of medium (˜2000 cells/well). Following 24 hours at 37° C., the culture medium was removed, and fresh medium (100 μl) containing either the compounds (5-1000 nM) or vehicle (medium plus 0.15% ethanol) was added to 4 replicates for each condition studied and the culture plates were then incubated for up to 96 hours at 37° C. in a 5% CO2 atmosphere. At the end of this period, 25 μl of freshly prepared MTT in HBSS (5 mg/ml) was added to the wells and the plates were incubated for 4 hours at 37° C. Dye solution was aspirated, wells were washed once with HBSS and dye taken up by the cells was extracted in 100 μl of isopropyl alcohol:1 N HCl (96:4, v/v) and quantitated at 570 nm using a microplate reader (Molecular Devices, Menlo Park, Calif.). In some experiments, cells were grown in 12-well culture plates, treated as above and enumerated using a Neubauer hemocytometer. Viability was assessed routinely using trypan blue exclusion assay. For the A549 cells and fibroblasts, a linear relation was established for the MTT values and cell number within the range of the experiments shown (r=0.995, P<0.005). A549 cells grown for 72 hours in the presence of the compounds (5-1000 nM) or vehicle (0.15% EtOH) were lysed with 0.25 N NaOH and the cellular protein content was determined by applying the Bio-Rad (Richmond, Calif.) microassay method using bovine serum albumin as standard. The mean cellular protein content in resting A549 cells was 46.6±1.5 pg/cell.

| SMILES | % inhibition [%] | inhibition of A549 cell growth compared with LXA4 (equimolar levels (100 nM)) | inhibition proliferation (equimolar levels (100 nM), Table 1) [%] |
| --- | --- | --- | --- |
| CCCCC[C@@H](O)/C=C/C=C\C=C\C=C\C(O)C(O)CCCC(=O)O (stereo in doubt) [15-epi-LXA4, 15R-5,6,15-trihydroxy-7,9,13-trans-11-cis-eicosatetraenoic acid] | 20.1 ± 1.9 | to a similar extent as LXA4 |  |
| CCCCC[C@@H](O)C(O)/C=C/C=C/C=C\C=C\C(O)CCCC(=O)O (stereo in doubt) [15-epi-LXB4, 15R-5,14,15-trihydroxy-6,10,12-trans-8-cis-eicosatetraenoic acid] | 79.3 ± 0.3 |  | ~80 |
